Results from US20080026996A1, “Selective Vpac2 Receptor Reptide Agonists” (ELI LILLY AND COMPANY, priority 2004, published 2008).
Where a SMILES comes first, the peptide text is derived from it. Where no end group is shown, it is not given here. [ ]: non-standard residue; d: D form. The star is where a group is joined. Hexanoyl = CCCCCC(=O)*; Aib = CC(C)(N)C(=O)O

Assays:
human VPAC1 = target: T1, human VPAC1 (Homo sapiens, UniProt P32241); experiment: Filter binding assay, membranes of cells transiently transfected with human VPAC1, 125I-labeled VIP tracer (Table 2); parameters: expressed in transfected cells; settings: read-out: Human VPAC1 Receptor Binding
T1 sequence (P32241 31-457): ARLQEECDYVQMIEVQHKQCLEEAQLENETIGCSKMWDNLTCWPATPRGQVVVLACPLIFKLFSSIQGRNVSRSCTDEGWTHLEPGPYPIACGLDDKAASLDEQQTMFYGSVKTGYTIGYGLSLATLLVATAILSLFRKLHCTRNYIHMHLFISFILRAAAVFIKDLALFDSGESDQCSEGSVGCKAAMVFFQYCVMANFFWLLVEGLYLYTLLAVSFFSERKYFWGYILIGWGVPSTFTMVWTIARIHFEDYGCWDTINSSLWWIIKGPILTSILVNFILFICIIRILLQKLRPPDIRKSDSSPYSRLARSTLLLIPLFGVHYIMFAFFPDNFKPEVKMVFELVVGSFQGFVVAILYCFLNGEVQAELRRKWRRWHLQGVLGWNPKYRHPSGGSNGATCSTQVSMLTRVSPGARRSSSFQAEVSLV
Method: (§1) For this assay, the solutions and equipment include:
(§2) Presoak solution: 0.5% Polyethyleneamine in Aqua dest.
(§3) Buffer for flushing filter plates: 25 mM HEPES pH 7.4
(§4) Blocking buffer: 25 mM HEPES pH 7.4; 0.2% protease free BSA
(§5) Assay buffer: 25 mM HEPES pH 7.4; 0.5% protease free BSA
(§6) Dilution and assay plate: PS-Microplate, U form
(§7) Filtration Plate Multiscreen FB Opaque Plate; […] Type B Glasfiber filter
(§8) In order to prepare the filter plates, aspirate the presoak solution by vacuum filtration. Flush the plates twice with 200 μL flush buffer. Add 200 μL blocking buffer to the filter plate. The filter plate is then incubated […] for 1 hour at room temperature.
(§9) Fill the assay plate with 25 μL assay buffer, 25 μL membranes (2.5 μg) suspended in assay buffer, 25 μL compound (agonist) in assay buffer, and 25 μL tracer (about 40000 cpm) in assay buffer. Incubate the filled plate for 1 hour with shaking.
(§10) Conduct the transfer from assay plate to filter plate. Aspirate the blocking buffer by vacuum filtration and wash two times with flush buffer. Transfer 90 μL from the assay plate to the filter plate. Aspirate the 90 μL transferred from assay plate and wash three times with 200 μL flush buffer. Remove the plastic support. Dry for 1 hour at 60° C. Add 30 μL Microscint. Perform the count.

human VPAC2 [1] = target: T2, human VPAC2 (Homo sapiens, UniProt P41587); experiment: Alpha screen cAMP in vitro potency, human VPAC2 receptor; assay type: cell-based; settings: cAMP generation; single result from two analyses performed in a single run; read-out: Human VPAC2 Receptor: Alpha Screen EC50
T2 construct: expressed in transfected cells
T2 sequence (P41587 24-438): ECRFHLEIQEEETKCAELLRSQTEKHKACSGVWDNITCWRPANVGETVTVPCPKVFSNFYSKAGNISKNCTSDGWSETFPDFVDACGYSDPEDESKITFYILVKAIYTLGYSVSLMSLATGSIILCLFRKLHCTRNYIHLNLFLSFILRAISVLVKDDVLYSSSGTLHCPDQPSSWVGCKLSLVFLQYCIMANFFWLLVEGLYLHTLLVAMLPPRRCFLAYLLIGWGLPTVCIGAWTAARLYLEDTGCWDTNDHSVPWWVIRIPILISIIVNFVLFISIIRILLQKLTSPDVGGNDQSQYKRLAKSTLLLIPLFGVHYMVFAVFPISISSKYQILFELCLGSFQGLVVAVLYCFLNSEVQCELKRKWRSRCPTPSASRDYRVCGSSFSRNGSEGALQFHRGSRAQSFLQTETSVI
Method: Alpha screen: Cells are washed in the culture flask once with PBS. Then, the cells are rinsed with enzyme free dissociation buffer. The dissociated cells are removed. The cells are then spun down and washed in stimulation buffer. For each data point, 50,000 cells suspended in stimulation buffer are used. To this buffer, Alpha screen acceptor beads are added along with the stimuli. This mixture is incubated for 60 minutes. Lysis buffer and Alpha screen donor beads are added and are incubated for 60 to 120 minutes. The Alpha screen signal (indicative of intracellular cAMP levels) is read in a suitable instrument (e.g. AlphaQuest from Perkin-Elmer). Steps including Alpha screen donor and acceptor beads are performed in reduced light.

human VPAC2 [2] = target: T2, human VPAC2; experiment: Filter binding assay, membranes of stable VPAC2 cell line, 125I-labeled VIP tracer (Table 2); settings: read-out: Human VPAC2 Receptor Binding
Method: as §1, §2, §3, §4, §5, §6, §7, §8, §9, §10

human PAC1 = target: T3, human PAC1 (Homo sapiens, UniProt P41586); experiment: Filter binding assay, membranes of cells transiently transfected with human PAC1, 125I-labeled PACAP-27 tracer (Table 2); parameters: expressed in transfected cells; settings: read-out: Human PAC1 Receptor Binding
T3 sequence (P41586 21-468): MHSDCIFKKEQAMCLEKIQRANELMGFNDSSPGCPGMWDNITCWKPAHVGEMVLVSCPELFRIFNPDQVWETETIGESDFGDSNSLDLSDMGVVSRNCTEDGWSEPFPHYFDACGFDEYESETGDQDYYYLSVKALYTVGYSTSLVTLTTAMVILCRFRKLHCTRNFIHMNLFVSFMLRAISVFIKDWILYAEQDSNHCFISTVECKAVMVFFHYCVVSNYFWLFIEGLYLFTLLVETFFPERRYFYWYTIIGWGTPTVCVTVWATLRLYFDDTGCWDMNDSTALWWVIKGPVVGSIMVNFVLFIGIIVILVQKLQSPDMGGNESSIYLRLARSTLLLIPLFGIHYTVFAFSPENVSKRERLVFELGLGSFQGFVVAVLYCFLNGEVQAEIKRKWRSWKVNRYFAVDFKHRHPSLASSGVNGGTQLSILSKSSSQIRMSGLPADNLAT
Method: as §1, §2, §3, §4, §5, §6, §7, §8, §9, §10

| Compound | IC50 (human VPAC1) | EC50 (human VPAC2 [1]) | IC50 (human VPAC2 [2]) | IC50 (human PAC1) |
| --- | --- | --- | --- | --- |
| CCCCCC(=O)N[C@@H](Cc1c[nH]cn1)C(=O)N[C@@H](CO)C(=O)N[C@@H](CC(=O)O)C(=O)N[C@@H](C)C(=O)N[C@H](C(=O)N[C@@H](Cc1ccccc1)C(=O)N[C@H](C(=O)N[C@@H](CC(=O)O)C(=O)N[C@@H](CC(N)=O)C(=O)N[C@@H](Cc1ccc(O)cc1)C(=O)N[C@H](C(=O)N[C@@H](CCCNC(=N)N)C(=O)N[C@@H](CC(C)C)C(=O)N[C@@H](CCCNC(=N)N)C(=O)N[C@@H](CCCCN)C(=O)N[C@@H](CCC(N)=O)C(=O)N[C@H](C(=O)N[C@@H](C)C(=O)N[C@@H](C)C(=O)N[C@@H](CCCCN)C(=O)N[C@@H](CCCCN)C(=O)N[C@@H](Cc1ccc(O)cc1)C(=O)N[C@@H](CC(C)C)C(=O)N[C@@H](CCC(N)=O)C(=O)N[C@@H](CO)C(=O)N[C@H](C(=O)N[C@@H](CCCCN)C(=O)N[C@@H](CCC(N)=O)C(=O)N[C@@H](CCCCN)C(=O)NCC(=O)NCC(=O)N1CCC[C@H]1C(=O)N[C@@H](CO)C(=O)N[C@@H](CO)C(=O)NCC(=O)N[C@@H](C)C(=O)N1CCC[C@H]1C(=O)N1CCC[C@H]1C(=O)N1CCC[C@H]1C(=O)N[C@@H](CO)C(=O)O)[C@@H](C)CC)C(C)C)[C@@H](C)O)[C@@H](C)O)C(C)C [Agonist P270] (Hexanoyl-HSDAVFTDNYTRLRKQVAAKKYLQSIKQKGGPSSGAPPPS-OH; C-terminus assumed) | 110 nM | 0.13 nM | 0.15 nM | 436 nM |
| CC[C@H](C)[C@H](NC(=O)[C@H](CO)NC(=O)[C@H](CCC(N)=O)NC(=O)[C@H](CC(C)C)NC(=O)[C@H](Cc1ccc(O)cc1)NC(=O)[C@H](CCCCN)NC(=O)[C@H](CCCCN)NC(=O)[C@H](C)NC(=O)[C@H](C)NC(=O)[C@@H](NC(=O)[C@H](CCC(N)=O)NC(=O)[C@H](CCCCN)NC(=O)[C@H](CCCNC(=N)N)NC(=O)[C@H](CC(C)C)NC(=O)[C@H](CCCNC(=N)N)NC(=O)[C@@H](NC(=O)[C@H](Cc1ccc(O)cc1)NC(=O)[C@H](CCC(N)=O)NC(=O)[C@H](CC(=O)O)NC(=O)[C@@H](NC(=O)[C@H](Cc1ccccc1)NC(=O)[C@@H](NC(=O)[C@H](C)NC(=O)[C@H](CC(=O)O)NC(=O)[C@H](CO)NC(=O)[C@H](Cc1c[nH]cn1)NC(=O)[C@@H](N)CCSC)C(C)C)[C@@H](C)O)[C@@H](C)O)C(C)C)C(=O)N[C@@H](CCCCN)C(=O)N[C@@H](CCC(N)=O)C(=O)N[C@@H](CCCCN)C(=O)N[C@@H](CCCNC(=N)N)C(=O)N[C@@H](Cc1ccc(O)cc1)C(=O)NCC(=O)NCC(=O)N1CCC[C@H]1C(=O)N[C@@H](CO)C(=O)N[C@@H](CO)C(=O)NCC(=O)N[C@@H](C)C(=O)N1CCC[C@H]1C(=O)N1CCC[C@H]1C(=O)N1CCC[C@H]1C(=O)N[C@@H](CO)C(=O)O [Agonist P100] | 321 nM | 0.28 nM | 0.4 nM | 187 nM |
| Hexanoyl-HSDAVFTDNYTRLRKQVAAKKYLQIIKNKRYGGPSSGAPPPS [Agonist P113] | 293 nM | 0.26 nM | 0.69 nM | 189 nM |
| Hexanoyl-HSDAVFTDNYTRLRKQVAAKKYLQSVKNKRYGGPSSGAPPPS [Agonist P109] | 274 nM | 0.22 nM | 0.11 nM | 257 nM |
| Hexanoyl-HSDAVFTDNYTRLRKQVAAKKYLQYIKNKRYGGPSSGAPPPS [Agonist P127] | 290 nM | 0.22 nM | 0.23 nM | 209 nM |
| Hexanoyl-HSDAVFTDNYTRLRKQVAAKKYLQSIKNKRGGPSSGAPPPS [Agonist P123] | 166 nM | 0.12 nM | 0.26 nM | 265 nM |
| Hexanoyl-HSDAVFTDNYTRLRKQVAAKKYLQTIKNKRYGGPSSGAPPPS [Agonist P115] | 267 nM | 0.2 nM | 0.1 nM | 190 nM |
| Hexanoyl-HSDAVFTDNYTRLRKQVAAKKYLQLIKNKRYGGPSSGAPPPS [Agonist P114] | 171 nM | 0.14 nM | 0.56 nM | 188 nM |
| Hexanoyl-H[dA]DAVFTDNYTRLRKQVAAKKYLQSIKNKRYGGPSSGAPPPS [Agonist P101] | 93.6 nM | 0.21 nM | 0.18 nM | 274 nM |
| Hexanoyl-HSDAVFTDNYTRLRKQVAAKKYLQS[Aib]KNKRYGGPSSGAPPPS [Agonist P188] | 6.19 nM | 0.32 nM | 0.29 nM | 700 nM |
| Hexanoyl-HSDAVFTDNYTRLRKQVAAKKYLQFIKNKRYGGPSSGAPPPS [Agonist P112] | 193 nM | 0.16 nM | 0.49 nM | 164 nM |
| Hexanoyl-HSDAVFTDNYTRLRKQVAAKKYLQSLKNKRYGGPSSGAPPPS [Agonist P107] | 122 nM | 0.12 nM | 0.16 nM | 225 nM |
| Hexanoyl-HSDAVFTDNYTRLRKQVAAKKYLQSIKNKKGGPSSGAPPPS [Agonist P121] | 169 nM | 0.1 nM | 0.19 nM | 253 nM |
| Hexanoyl-HSDAVFTDQYTRLLAKLALQKYLQSIKQKRYGGPSSGAPPPS [Agonist P192] | 1430 nM | 0.18 nM | 0.53 nM | 14300 nM |
| Hexanoyl-HSDAVFTDNYTRLRRQVAARRYLQSIRNRRYGGPSSGAPPPS [Agonist P98] | 69 nM | 0.15 nM | 0.17 nM | 96.3 nM |
| Hexanoyl-HSDAVFTDNYTRLRKQVAAKKYLQSWKNKRYGGPSSGAPPPS [Agonist P110] | 425 nM | 0.13 nM | 0.1 nM | 321 nM |
| Hexanoyl-HSDAVFTDNYTRLRKQVAGKKYLQSIKNKRYGGPSSGAPPPS [Agonist P275] | 558 nM | 0.32 nM | 0.38 nM | 630 nM |
